According to ChEMBL document CHEMBL4340508, “Synthesis and evaluation of tetrahydroisoquinoline-benzimidazole hybrids as multifunctional agents for the treatment of Alzheimer's disease” (Eur J Med Chem, 2019):
Active and inactive are the calls of the source. No cut-off for these calls is given here.

What was measured:
BV-2 [1] = assay: Antineuroinflammatory activity in mouse BV2 cells assessed as inhibition of LPS-induced nitric oxide production pretreated for 30 mins followed by LPS-stimulation for 24 hrs by Griess assay; type: functional, cell-based
[2] = biological target: Cholinesterase (Homo sapiens) (UniProt P06276); assay: Inhibition of human serum BuChE at 10 uM using butyrylthiocholine chloride as substrate preincubated for 15 mins followed by substrate addition and measured at 1 min time interval by Ellman's method relative to control
Cholinesterase (Homo sapiens), sequence (P06276 whole entry): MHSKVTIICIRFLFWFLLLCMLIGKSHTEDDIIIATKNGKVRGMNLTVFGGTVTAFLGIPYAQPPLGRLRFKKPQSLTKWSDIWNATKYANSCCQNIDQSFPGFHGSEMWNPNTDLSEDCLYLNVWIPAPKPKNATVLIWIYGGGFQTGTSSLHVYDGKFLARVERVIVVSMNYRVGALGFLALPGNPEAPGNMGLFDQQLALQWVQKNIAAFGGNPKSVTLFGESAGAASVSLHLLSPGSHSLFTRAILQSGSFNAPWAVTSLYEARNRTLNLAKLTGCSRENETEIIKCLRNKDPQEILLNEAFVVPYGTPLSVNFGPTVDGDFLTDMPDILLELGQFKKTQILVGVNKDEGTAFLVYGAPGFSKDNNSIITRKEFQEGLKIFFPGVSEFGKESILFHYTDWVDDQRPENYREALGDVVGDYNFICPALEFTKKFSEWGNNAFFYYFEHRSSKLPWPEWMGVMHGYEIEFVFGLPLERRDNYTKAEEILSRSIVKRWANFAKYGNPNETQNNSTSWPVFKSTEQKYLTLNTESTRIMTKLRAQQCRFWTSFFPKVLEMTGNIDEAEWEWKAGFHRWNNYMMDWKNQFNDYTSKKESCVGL

[3] = biological target: Acetylcholinesterase (Homo sapiens) (UniProt P22303); assay: Inhibition of human erythrocyte AChE at 10 uM using acetylthiocholine chloride as substrate preincubated for 15 mins followed by substrate addition and measured at 1 min time interval by Ellman's method relative to control
Acetylcholinesterase (Homo sapiens), sequence (P22303 whole entry): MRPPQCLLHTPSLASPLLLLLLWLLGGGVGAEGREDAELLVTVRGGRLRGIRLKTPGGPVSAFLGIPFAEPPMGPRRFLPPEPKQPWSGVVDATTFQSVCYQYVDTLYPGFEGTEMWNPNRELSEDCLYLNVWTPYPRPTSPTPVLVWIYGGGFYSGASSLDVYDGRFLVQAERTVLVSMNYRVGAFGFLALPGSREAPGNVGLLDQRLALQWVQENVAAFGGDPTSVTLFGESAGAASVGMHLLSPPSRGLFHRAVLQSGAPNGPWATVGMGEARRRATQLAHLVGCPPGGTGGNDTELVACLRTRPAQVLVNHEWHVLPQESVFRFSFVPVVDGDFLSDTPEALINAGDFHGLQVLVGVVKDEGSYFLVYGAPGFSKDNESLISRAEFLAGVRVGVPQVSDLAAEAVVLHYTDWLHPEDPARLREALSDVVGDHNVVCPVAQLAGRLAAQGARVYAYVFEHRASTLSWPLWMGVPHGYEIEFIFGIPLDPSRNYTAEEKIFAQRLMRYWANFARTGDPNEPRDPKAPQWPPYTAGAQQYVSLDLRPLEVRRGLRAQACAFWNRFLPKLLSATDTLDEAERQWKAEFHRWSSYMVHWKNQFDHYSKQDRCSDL

BV-2 [4] = assay: Antineuroinflammatory activity in mouse BV2 cells assessed as decrease in LPS-induced secretion of TNFalpha incubated for 30 mins followed by LPS stimulation for 16 hrs by ELISA; type: functional, cell-based
HT-22 [5] = assay: Neuroprotective activity against glutamate-induced intracellular oxidative stress in mouse HT22 cells assessed as increase in GSH level at 5 uM measured after 12 hrs relative to control; type: functional, cell-based
HT-22 [6] = assay: Neuroprotective activity against glutamate-induced cytotoxicity in mouse HT22 cells assessed as cell viability at 5 uM measured after 24 hrs by MTT assay (reference value: 30%); type: functional; details: HT-22, 24 h, read-out: Activity
BV-2 [7] = assay: Antineuroinflammatory activity in mouse BV2 cells assessed as decrease in LPS-induced IL-1beta expression incubated for 30 mins followed by LPS stimulation for 12 hrs by qPCR method; type: functional, cell-based
BV-2 [8] = assay: Antineuroinflammatory activity in mouse BV2 cells assessed as decrease in LPS-induced TNFalpha expression incubated for 30 mins followed by LPS stimulation for 12 hrs by qPCR method; type: functional, cell-based
BV-2 [9] = assay: Neuroprotective activity against glutamate-induced cell damage in […] assessed as change in cell morphology at 5 uM measured after 24 hrs; type: functional, cell-based
BV-2 [10] = assay: Antineuroinflammatory activity in mouse BV2 cells assessed as decrease in LPS-induced secretion of IL-1beta incubated for 30 mins followed by LPS stimulation for 16 hrs by ELISA; type: functional, cell-based
[11] = Permeability of the compound in PBS/EtOH at 100 ug/ml after 10 hrs by PAMPA-BBB assay; type: ADME; details: read-out: permeability
BV-2 [12] = assay: Antineuroinflammatory activity in mouse BV2 cells assessed as decrease in LPS-induced iNOS expression incubated for 30 mins followed by LPS stimulation for 16 hrs by Western blot analysis; type: functional, cell-based
BV-2 [13] = assay: Antineuroinflammatory activity in mouse BV2 cells assessed as decrease in LPS-induced iNOS mRNA expression incubated for 30 mins followed by LPS stimulation for 12 hrs by qPCR method; type: functional, cell-based
HT-22 [14] = assay: Neuroprotective activity against glutamate-induced intracellular oxidative stress in mouse HT22 cells assessed as inhibition of ROS production at 5 uM measured after 12 hrs by DCFH-DA probe based fluorescence method relative to control; type: functional, cell-based
Beta-secretase 1 = Beta-secretase 1 (Homo sapiens, UniProt P56817); assay: Inhibition of recombinant human BACE1 preincubated with enzyme for 20 mins followed by addition of Rh-EVNLDAEFK-Quencher as substrate measured after 60 mins by FRET assay
Beta-secretase 1, sequence (P56817 whole entry): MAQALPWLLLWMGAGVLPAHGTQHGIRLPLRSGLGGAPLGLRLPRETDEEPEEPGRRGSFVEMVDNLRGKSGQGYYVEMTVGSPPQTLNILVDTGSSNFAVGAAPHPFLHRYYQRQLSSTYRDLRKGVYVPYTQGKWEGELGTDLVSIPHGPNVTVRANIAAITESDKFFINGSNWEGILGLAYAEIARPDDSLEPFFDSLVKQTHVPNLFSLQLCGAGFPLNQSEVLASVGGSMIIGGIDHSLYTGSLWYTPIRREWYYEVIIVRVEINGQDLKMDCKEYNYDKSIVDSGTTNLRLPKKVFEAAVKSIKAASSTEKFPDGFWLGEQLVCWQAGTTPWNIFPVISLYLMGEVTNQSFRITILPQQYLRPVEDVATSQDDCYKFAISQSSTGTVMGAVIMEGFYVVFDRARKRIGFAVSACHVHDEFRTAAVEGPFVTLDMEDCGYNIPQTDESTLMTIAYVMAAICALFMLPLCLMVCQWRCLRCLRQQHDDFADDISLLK

| Structure (SMILES) | IC50 (BV-2 [1]) | inhibition [2] | inhibition [3] | viability at 5 µM (HT-22 [6]) | Papp at 10 h, 100 ug/ml [11] | other results |
| --- | --- | --- | --- | --- | --- | --- |
| CC(C)(C)c1ccc2nc(-c3cccc(N4CCc5ccccc5C4)n3)[nH]c2c1 | > 10 µM | 3.8% | 24.6% |  |  |  |
| COc1ccc2nc(-c3cccc(N4CCc5ccccc5C4)n3)[nH]c2c1 | 5.07 µM | 35.6% | 4.5% | 91.8% | 16.8 ×10⁻⁶ cm/s | Activity (BV-2 [4]): Dose-dependent effect; Activity (HT-22 [5]): Active; Activity (BV-2 [7]): Dose-dependent effect; Activity (BV-2 [8]): Dose-dependent effect; Activity (BV-2 [9]): Active; Activity (BV-2 [10]): Dose-dependent effect; Activity (BV-2 [12]): Dose-dependent effect; Activity (BV-2 [13]): Dose-dependent effect; inhibition (HT-22 [14]): Active |
| Oc1ccc2nc(-c3cccc(N4CCc5ccccc5C4)n3)[nH]c2c1 | 3.8 µM | 45.6% | 7.5% | 98.8% | 13.8 ×10⁻⁶ cm/s |  |
| COc1ccc2nc(-c3cccc(N4CCc5ccccc5C4)c3)[nH]c2c1 | 8.28 µM | 5.4% | 10.4% |  | 5.6 ×10⁻⁶ cm/s |  |
| c1cc(-c2nc3ccccc3[nH]2)cc(N2CCc3ccccc3C2)c1 | 6.08 µM | 18.3% | 6.3% |  | 8.5 ×10⁻⁶ cm/s |  |
| Fc1cc2[nH]c(-c3cccc(N4CCc5ccccc5C4)c3)nc2cc1Cl | > 10 µM | 0.5% | 10.9% | 48.9% | 10.1 ×10⁻⁶ cm/s |  |
| Fc1ccc2nc(-c3cccc(N4CCc5ccccc5C4)c3)[nH]c2c1 | 5.42 µM | 17.1% | 9.5% |  | 12.6 ×10⁻⁶ cm/s |  |
| c1cc(-c2nc3ccccc3[nH]2)nc(N2CCc3ccccc3C2)c1 | 7.33 µM | 23.2% | 10.1% | 80.3% | 15.9 ×10⁻⁶ cm/s |  |
| Fc1ccc2nc(-c3cccc(N4CCc5ccccc5C4)n3)[nH]c2c1 | 5.7 µM | 24.2% | 6.6% | 67.8% | 14.5 ×10⁻⁶ cm/s |  |
| COc1ccc2c(c1)CCN(c1cccc(-c3nc4ccc(OC)cc4[nH]3)n1)C2 | > 10 µM | 9.7% | 4.7% |  | 11.5 ×10⁻⁶ cm/s |  |
| FC(F)(F)c1ccc2nc(-c3cccc(N4CCc5ccccc5C4)c3)[nH]c2c1 | 7.72 µM | 11.3% | 11.9% |  | 8.7 ×10⁻⁶ cm/s |  |
| Clc1ccc2nc(-c3cccc(N4CCc5ccccc5C4)n3)[nH]c2c1 | 6.94 µM | 19.8% | 24.3% |  | 16.7 ×10⁻⁶ cm/s | IC50 (Beta-secretase 1): 1.8 µM |
| Oc1ccc2nc(-c3cccc(N4CCc5ccccc5C4)c3)[nH]c2c1 | 5.95 µM | 6.8% | 11.2% |  | 8.6 ×10⁻⁶ cm/s |  |
| Fc1cc2nc(-c3cccc(N4CCc5ccccc5C4)n3)[nH]c2cc1F | 6.58 µM | 8.9% | 7.2% |  | 13.9 ×10⁻⁶ cm/s |  |
| FC(F)(F)Oc1ccc2nc(-c3cccc(N4CCc5ccccc5C4)n3)[nH]c2c1 | 9.74 µM | 11.7% | 7.6% | 62.1% | 10 ×10⁻⁶ cm/s | IC50 (Beta-secretase 1): 1.1 µM |
| COc1ccc2c(c1)CCN(c1cccc(-c3nc4ccc(OC)cc4[nH]3)c1)C2 | > 10 µM | 0.3% | 6% | 93.1% | 7.6 ×10⁻⁶ cm/s |  |
| Nc1cccc2nc(-c3cccc(N4CCc5ccccc5C4)c3)[nH]c12 | > 10 µM | 25.9% | 4.8% | 94.9% | 13 ×10⁻⁶ cm/s |  |
| Fc1ccc2c(c1)CCN(c1cccc(-c3nc4ccc(F)cc4[nH]3)n1)C2 | 6.43 µM | 33.7% | 19.9% | 71.1% | 14 ×10⁻⁶ cm/s |  |
| Clc1ccc2nc(-c3cccc(N4CCc5ccccc5C4)c3)[nH]c2c1 | > 10 µM | 27.6% | 3.4% | 67.6% | 4.9 ×10⁻⁶ cm/s | IC50 (Beta-secretase 1): 1.3 µM |
| FC(F)(F)c1ccc2nc(-c3cccc(N4CCc5ccccc5C4)n3)[nH]c2c1 | 9.33 µM | 18.6% | 20.4% |  | 5.4 ×10⁻⁶ cm/s | IC50 (Beta-secretase 1): 3.6 µM |
| Cc1ccc2nc(-c3cccc(N4CCc5ccccc5C4)c3)[nH]c2c1 | 5.7 µM | 20.7% | 5% |  | 9.6 ×10⁻⁶ cm/s |  |
| Clc1cc2nc(-c3cccc(N4CCc5ccccc5C4)c3)[nH]c2cc1Cl | 7.93 µM | 3.7% | 16.2% |  | 9.9 ×10⁻⁶ cm/s |  |
